Reference: ChEMBL document CHEMBL2074230, “Interaction and transport of thiazide diuretics, loop diuretics, and acetazolamide via rat renal organic anion transporter rOAT1” (J Pharmacol Exp Ther, 2000)
Each block holds one molecule with its values, some of them ahead of it.

Key:
[1] = biological target: T1, Solute carrier family 22 member 6 (Rattus norvegicus, UniProt O35956); test: TP_TRANSPORTER: uptake in Xenopus laevis oocytes; type: functional, cell-based; conditions: oocyte
T1 sequence (O35956 whole entry): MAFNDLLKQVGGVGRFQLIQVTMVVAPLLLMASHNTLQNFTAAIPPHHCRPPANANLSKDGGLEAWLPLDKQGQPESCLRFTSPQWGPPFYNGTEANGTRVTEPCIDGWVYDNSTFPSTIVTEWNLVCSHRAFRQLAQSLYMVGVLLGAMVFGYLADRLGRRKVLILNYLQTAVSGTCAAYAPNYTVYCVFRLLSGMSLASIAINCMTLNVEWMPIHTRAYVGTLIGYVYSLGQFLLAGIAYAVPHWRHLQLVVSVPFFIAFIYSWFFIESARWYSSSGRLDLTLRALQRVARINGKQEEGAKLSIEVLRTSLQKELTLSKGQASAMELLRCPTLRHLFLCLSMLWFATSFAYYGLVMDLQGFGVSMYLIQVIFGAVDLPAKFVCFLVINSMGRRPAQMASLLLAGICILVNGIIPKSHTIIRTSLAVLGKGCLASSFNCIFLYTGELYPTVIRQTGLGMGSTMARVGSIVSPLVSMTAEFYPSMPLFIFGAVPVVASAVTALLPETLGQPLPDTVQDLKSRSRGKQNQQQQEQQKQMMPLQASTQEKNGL

[2] = biological target: T1, Solute carrier family 22 member 6; test: TP_TRANSPORTER: inhibition of PAH uptake in Xenopus laevis oocytes; type: functional, cell-based, Oocyte; conditions: for Activity: xenopus laevis, oocyte
[3] = substrate: Nc1ccc(C(=O)NCC(=O)O)cc1; test: cells, lysate or membranes named

Molecule: CC(=O)Nc1nnc(S(N)(=O)=O)s1 [ACETAZOLAMIDE]
Activity [1]: substrate [+]
Ki [2]: 1100 µM

Molecule: CCCCNc1cc(C(=O)O)cc(S(N)(=O)=O)c1Oc1ccccc1 [BUMETANIDE]
Ki [2]: 5.5 µM

Molecule: NS(=O)(=O)c1cc2c(cc1Cl)N=CNS2(=O)=O [CHLOROTHIAZIDE]
Activity [2]: inhibitor [+]

Molecule: NS(=O)(=O)c1cc2c(cc1Cl)NCNS2(=O)=O [HYDROCHLOROTHIAZIDE]
Ki [2]: 150 µM

B1: Solute carrier family 22 member 6 (Rattus norvegicus) (protein)
chain: T1 sequence (O35956 whole entry)
Km [3]: 31 µM

Second part, the molecule after the results:

Activity [2]: inhibitor [+]
Molecule: NS(=O)(=O)c1cc2c(cc1Cl)NC(C1CC3C=CC1C3)NS2(=O)=O (stereo unspecified) [CYCLOTHIAZIDE]

Activity [2]: inhibitor [+]
Molecule: CCOc1ccc2nc(S(N)(=O)=O)sc2c1 [ETHOXZOLAMIDE]

Activity [1]: substrate [+]
Ki [2]: 9.5 µM
Molecule: NS(=O)(=O)c1cc(C(=O)O)c(NCc2ccco2)cc1Cl [FUROSEMIDE]

Activity [2]: inhibitor [+]
Molecule: CC(=O)/N=c1/sc(S(N)(=O)=O)nn1C [METHAZOLAMIDE]
